According to publication PMC10892288, “Early Stage Preclinical Formulation Strategies to Alter the Pharmacokinetic Profile of Two Small Molecule Therapeutics” (Pharmaceuticals, 2024):

Legend:
[1] = Permeability (physiochemical properties); type: in vitro ADME
[2] = pKa (physiochemical properties); type: physicochemical
Description: Table 1 Physiochemical properties of […] and […]. | column: […]; […]

[3] = Vehicle screening for solution or suspension formulations; type: physicochemical; conditions: 100% PEG400
Procedure: Based on the target concentration, G7883 was screened at 3.3 mg/mL in three different vehicles of 100%PEG400, 10%DMSO in 90%PEG400, and 20%DMSO in 80%PEG400 to generate a stable solution. […] A total of 50% DMSO is the maximum amount compatible with the iPRECIO pump system. Based on the target concentration, G6893 was screened at 5 mg/mL in four different vehicles as follows: 100% PEG400, 20% DMSO in 80% PEG400, 20% DMA and 40% PG in 40% PEG400, and 10% EtOH and 20% HPbCD in 70% water at pH 4.5. G6893 achieved a solution at the target concentration of 5 mg/mL in 100% PEG400 and maintained a solution without precipitation after dilution in PBS buffer.
G7883 was screened in different oil vehicles including corn, coconut, paraffin, soybean, and sunflower oil.

HPK1 = HPK1 (Homo sapiens, UniProt Q92918); test: Potency (IC50) of HPK1 inhibitor
Sequence of HPK1 (Q92918 whole entry, species assumed): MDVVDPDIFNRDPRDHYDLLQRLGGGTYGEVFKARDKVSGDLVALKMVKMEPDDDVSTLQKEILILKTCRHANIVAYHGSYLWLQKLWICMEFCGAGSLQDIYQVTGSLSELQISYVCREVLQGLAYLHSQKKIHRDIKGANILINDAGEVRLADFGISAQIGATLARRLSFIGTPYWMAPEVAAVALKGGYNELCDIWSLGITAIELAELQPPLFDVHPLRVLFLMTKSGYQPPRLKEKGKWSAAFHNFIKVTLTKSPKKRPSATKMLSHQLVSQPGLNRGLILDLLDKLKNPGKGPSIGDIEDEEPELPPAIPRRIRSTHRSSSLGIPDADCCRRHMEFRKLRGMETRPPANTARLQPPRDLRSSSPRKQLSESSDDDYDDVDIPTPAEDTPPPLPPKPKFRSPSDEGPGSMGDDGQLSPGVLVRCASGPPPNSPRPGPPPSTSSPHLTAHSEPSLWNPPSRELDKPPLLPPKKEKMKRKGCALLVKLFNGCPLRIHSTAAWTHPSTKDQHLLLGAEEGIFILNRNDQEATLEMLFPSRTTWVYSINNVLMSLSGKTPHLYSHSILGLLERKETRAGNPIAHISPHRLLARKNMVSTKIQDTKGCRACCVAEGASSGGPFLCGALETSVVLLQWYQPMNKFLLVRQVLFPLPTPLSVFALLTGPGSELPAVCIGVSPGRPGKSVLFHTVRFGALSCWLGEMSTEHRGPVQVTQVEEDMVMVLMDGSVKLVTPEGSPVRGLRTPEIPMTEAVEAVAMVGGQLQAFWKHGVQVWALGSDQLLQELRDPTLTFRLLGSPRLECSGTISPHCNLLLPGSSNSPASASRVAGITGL

[4] = Log P (physiochemical properties); type: physicochemical
[5] = Mouse PK of G6893, PO in MCT vehicle; type: in vivo, female C57BL-6 mice; conditions: female, C57BL-6, plasma, 30 mg/kg, PO 30 mpk, MCT vehicle pH 2.5, mouse
Procedure: A total of 0.6% w/v Methylcellulose, 0.2% w/v Tween 80 in water (MCT) was prepared by slowly adding Methylcellulose (Methylocel A15 LV; CAS 9004-67-5, Part ID: 64605-500G-F 27.5-31.5% Methoxyl basis, Sigma-Aldrich, St. Louis, MO, USA) in small portions to prevent clumping while stirring into water at 70–80 °C. Once a homogeneous suspension formed, Tween 80 (Polysorbate 80; CAS#9005-65-6 (Polyoxyethylene (20) Sorbitan Monooleate; Tween 80) Part ID: PO138, Spectrum Chemical, New Brunswick, NJ, USA) was added and stirred until fully dissolved. Vehicle was filtered through 0.22 µm PES (Corning REF no. 431098) prior to adding to the compound for dosing. Respective compound was added based on the target concentration to the MCT vehicle and stirred at 35 °C until the power was well-dispersed. Formulations were homogenized through a polytron homogenizer and then sonicated in a water bath sonicator until a homogeneous suspension was achieved.
The pharmacokinetics of G7883 were determined in female CD-1 mice obtained from Charles River Laboratories (Hollister, CA, USA) with a body weight ranging from 20 to 25 g. The pharmacokinetics of G6893 were determined in female C57BL-6 mice (Lingchang/Vital River Laboratory Animal Co., Ltd., Shanghai/Beijing, China) with a body weight ranging from 20 to 35 g. Three mice were given an oral dose of G7883 formulated in 0.6% Methylcellulose, 0.2% Tween80 in water (MCT) at 25 mg/kg and 250 mg/kg with a dosing volume of 10 mL/kg. Food and water were available ad libitum to the animals. Three mice were given an oral dose of G6893 formulated in 0.6% methylcellulose; 0.2% Tween80 in water with pH adjusted to 2.5 at 30 mg/kg and a dose volume of 5 mL/kg. For both compounds, G7883 and G6893, 15 µL of blood was collected serially at 0. 25, 0.5, 1, 2, 4, 6, 8, and 24 h post-dose and diluted in 60 µL of 1.7 mg/mL potassium K2EDTA water. The frozen blood samples were stored at −70 °C or lower until analysis.
All plasma and cell media concentrations of G7883 and G6893 were determined using liquid chromatography–tandem mass spectrometry after protein precipitation with acetonitrile and injection of the supernatant onto the column (Waters ACQUITY UPLC BEH C18 1.7 μm, 2.1 × 50 mm for G7883 and G6893). The aqueous mobile phase was 0.1% formic acid, 2 mM ammonium formate in water/acetonitrile (v:v, 95:5), and the organic mobile phase was 0.1% formic acid, 2 mM ammonium formate in acetonitrile/water (v:v, 95:5). An AB Sciex API 4000 Triple Quad instrument was used for detecting G7883 and G6893 (Figure S2). The electrospray ionization source in both columns was operated in the positive ion and multiple reaction monitoring (MRM) detection modes. The MRM transitions for G7883 and G6893 were m/z 462.2 (Q1) and 253.10 (Q3) and m/z 454.2 (Q1) and 325.9 (Q3), respectively. The dynamic range of both assays was 0.50–50.0 ng/mL, and the total run time was 1.6 min. The lower limit of quantitation of the assay was […], and the dilution quality control concentration was set at 10 ng/mL with acceptance criteria for accuracy and precision of 25%.

[6] = Mouse IV infusion of G6893 by iPRECIO pump; type: in vivo, female C57BL-6 mice; conditions: 0.5 mg/kg/h, 2.5 mg/mL in 100% PEG400, over 96 h
Description: This is often a concern for molecules in early drug discovery stages. Various formulation and delivery strategies have been devised to modify the systemic PK profiles of drug molecules, encompassing nanoparticles, microparticles, lipid and polymer conjugation, implanted infusion pump device technologies, and subcutaneous depots. Here, we examined two strategies aimed at maintaining the drug concentration at a designed target concentration for the maximum duration potentially needed for proof of concept studies. The initial approach involved using an implantable device, the iPRECIO pump that allows for a controlled and sustained infusion, as opposed to a typical bolus IV injection. The infusion pump strategies can be a promising tool to achieve the desired delivery profile of a compound, given the solubility requirements based on the intended target release and PK profile. […]
All plasma and cell media concentrations of G7883 and G6893 were determined using liquid chromatography–tandem mass spectrometry after protein precipitation with acetonitrile and injection of the supernatant onto the column (Waters ACQUITY UPLC BEH C18 1.7 μm, 2.1 × 50 mm for G7883 and G6893). […] The lower limit of quantitation of the assay was 5.1 ng/mL, and the dilution quality control concentration was set at 10 ng/mL with acceptance criteria for accuracy and precision of 25%.

[7] = Water solubility (physiochemical properties); type: physicochemical

Cc1c(-c2cc3cc(NC(=O)O[C@H]4COC[C@@H]4C)ncc3c(N)c2F)cnc2c1NCCO2 (racemic) [G6893, [rac-(3R,4S)-4-methyltetra hydrofuran-3-yl]N-[8-amino-7-fluoro-6-(8-methyl-2,3-dihydro-1H-pyrido[2,3-b][1,4]oxazin-7-yl)-3-isoquinolyl]carbamate]
permeability (in words) [1]: high permeability | Papp ([1]; not told): 15 ×10⁻⁶ cm/s | pKa [2]: 2.53 | concentration at which a solution was achieved [3]: ≥ 5 mg/mL | IC50 (HPK1): 560 nM | logP [4]: 2.69 | Cmax ([5]; mean ± SD): 3.8 ± 1.68 µM | Tmax ([5]; mean ± SD): 40 ± 17.3 min | bioavailability ([5]; mean ± SD): 45.5 ± 14% | half-life ([5]; mean ± SD): 184 ± 115 min | AUC(0-t) ([5]; read-out: AUC0 to 8): 19.5 µM·h | plasma concentration relative to target concentration (IC50) [6]: successfully maintained the target concentration profile | solubility (in words) [7]: low solubility | solubility ([7]; water): < 1 µg/mL
